One series addresses T1, Acetylcholinesterase (Homo sapiens, UniProt P22303).
T1 construct: purchased Eurofins Cerep (SafetyScreen44)
As to the kind of experiment: SafetyScreen44 enzyme inhibition. To be noted: read-out: % Inh (percent inhibition of the activity of the control enzyme). The class given is biochemical. As for the experimental part:
(§1) The SafetyScreen44® assay was carried out by Eurofins (Poitiers, France) according to the service-provider’s protocol. CPL500036 (1 µM) was tested against a panel of […] potential off-targets proteins, including G protein-coupled receptors (GPCRs), transporters, ion channels, nuclear receptors kinases and other non-kinase enzymes, by use of a set of the binding assays.
(§2) Binding of CPL500036 was calculated as the percent binding inhibition of a radioactively labeled ligand specific for each target. Enzyme inhibition of CPL500036 was calculated as the percent inhibition of the activity of the control enzyme. “No interaction” was denoted if inhibition ≤ 25% of specific binding of the control. Determination of muscarinic acetylcholine receptor (M2) activity induced by CPL500036 (antagonism and agonism) was undertaken in human recombinant CHO cells by measurement of the intracellular cAMP level according to the service-provider’s protocol. IC50 (concentration causing a half-maximal inhibition of specific binding of the control) or EC50 (concentration causing a half-maximal response of specific binding of the control) and the Hill coefficient were determined by non-linear regression analysis of the competition curves generated with mean replicate values using Hill-equation curve fitting with software developed at Cerep (Celle-Lévescault, France).

A further series has as its target T2, Cyclooxygenase 1 (Homo sapiens, UniProt P23219).
T2 construct: purchased Eurofins Cerep (SafetyScreen44)
As to the kind of experiment: SafetyScreen44 enzyme inhibition. The class given is biochemical. The note with it: read-out: % Inh (percent inhibition of the activity of the control enzyme). As for the experimental part:
as §1, §2

For a further series, the target named is T3, Cyclooxygenase 2 (Homo sapiens, UniProt P35354).
T3 construct: purchased Eurofins Cerep (SafetyScreen44)
Kind of series: SafetyScreen44 enzyme inhibition. The note with it: read-out: % Inh (percent inhibition of the activity of the control enzyme). The class given is biochemical. As for the experimental part:
as §1, §2

For series [1], the target named is T4, lymphocyte-specific protein tyrosine kinase (Homo sapiens, UniProt P06239).
T4 construct: purchased Eurofins Cerep (SafetyScreen44)
As to the kind of experiment: SafetyScreen44 enzyme inhibition. The class given is biochemical. To be noted: read-out: % Inh (percent inhibition of the activity of the control enzyme). As for the experimental part: as §1, §2

In another series the target is T5, phosphodiesterase 3A (Homo sapiens, UniProt Q14432).
T5 construct: purchased Eurofins Cerep (SafetyScreen44)
Kind of series: SafetyScreen44 enzyme inhibition. The class given is biochemical. The note with it: read-out: % Inh (percent inhibition of the activity of the control enzyme). The protocol: as §1, §2

In the next series the target is T6, phosphodiesterase 4 (Homo sapiens, UniProt Q08499).
T6 construct: purchased Eurofins Cerep (SafetyScreen44)
Kind of series: SafetyScreen44 enzyme inhibition. The class given is biochemical. To be noted: read-out: % Inh (percent inhibition of the activity of the control enzyme). The protocol:
as §1, §2

The next series has as its target hERG (Homo sapiens, UniProt Q12809). As to the kind of experiment: hERG tail current, manual patch-clamp in hERG-HEK-293 transfected cells. The class given is cell-based. The protocol:
The dose-dependent effect of CPL500036 (10^–7 M–10^–5 M) on hERG current was conducted at Centre De Recherches Biologiques (CERB; Baugy, France) using the whole hERG-HEK-293 transfected cell system and manual patch-clamp method. […] Cells were clamped to −80 mV, depolarized to 0 mV for 5 s (to allow activation of hERG current) and repolarized to −50 mV for 5 s (to allow hERG tail current to deactivate). This experimental procedure was repeated at a frequency of 0.06 Hz. Currents were filtered at 1 kHz and acquired at a frequency of 2 kHz. The amplitude of hERG tail current was measured during the repolarizing pulse from 0 mV to −50 mV. […] Currents were measured before and after exposure to CPL500036.
A general note: The hERG channel carries a current that helps repolarise heart muscle cells.

The nature of series [2]: Plasma protein binding (equilibrium dialysis). The class given is in vitro ADME, rats. As for the experimental part: The plasma protein binding study was carried out by Eurofins (Poitiers, France) according to the service-provider’s protocol. Briefly, the protein matrix was spiked with the test compound at 10 μM (n = 2) with a final DMSO concentration of 1%. The dialysate compartment was loaded with phosphate buffered saline (PBS, pH 7.4) and the sample side was loaded with equal volume of the spiked protein matrix. The dialysis plate was incubated at 37°C for 4 h. After the incubation, samples were taken from each compartment, diluted with the phosphate buffer followed by addition of acetonitrile and centrifugation. The supernatants were then used for HPLC-MS/MS analysis. Acebutolol, quinidine, and warfarin were tested as reference.
Background: In equilibrium dialysis only unbound substance equilibrates across the membrane.

Series [3] can be described thus: Pharmacokinetics after oral gavage in rats (plasma and brain). To be noted: for AUC(0-t): read-out: AUC(0–24h). The class given is in vivo, Wistar Han rats. The protocol: (§3) The study was carried out in 40 male Wistar Han rats (∼10 weeks; Tri-City Academic Laboratory Animal Centre, Research and Services Centre, Medical University of Gdansk). Rats were fasted for 12 h (water was available at libitum) before administration and fed 4 h post-dose. Rats received CPL500036 (3 mg/kg per oral gavage). At each of eight time points (15 min, 30 min as well as 1 h, 2 h, 4 h, 7 h, 12 h, and 24 h), five rats were killed by exsanguination, and samples of blood and brain were harvested. Two male and two female Beagle dogs (10.5–13 months old, MediTox s.r.o., Konarovice, Czech Republic) received CPL500036 in a dose of 1.5 mg/kg per oral gavage. Blood was taken by venepuncture from v. cephalica antebrachii at twelve time points (0 min, 15 min, 30 min as well as 1 h, 2 h, 3 h, 4 h, 6 h, 8 h, 12 h, 24 h, and 48 h.
(§4) Blood was collected into tubes containing the anticoagulant K2EDTA and centrifuged (2,000 × g, 15 min, 4°C) to obtain plasma. Brain samples were homogenized in water. Plasma and brain homogenates were stored at −80°C until analyses. Acetonitrile (150 μl) spiked with internal standard (donepezil; MilliporeSigma) was added to 50 μl of each plasma homogenate or brain homogenate, respectively. The mixture was shaken vigorously for 2 min and then centrifuged (4,000 × g, 4 min, room temperature). Supernatants were injected into a high-performance liquid chromatography system (Infinity™ 1,260; Agilent Technologies, Santa Clara, CA, United States) with a Zorbax SB column ([…]; 1.8 μm; Agilent Technologies). The mobile phase was ammonium formate (20 mM, pH 3.0) and acetonitrile with 0.1% formic acid. The gradient chromatographic separation used a flow rate of 0.4 ml/min for 7.5 min at a nominal temperature of 30°C. Signal acquisition was undertaken for 5.5 min using of a triple quadrupole mass spectrometer (6,460 series; Agilent Technologies) with electrospray ionization (5500 V, 320°C). Multiple-reaction monitoring was applied to detect the following transitions of the m/z ratio: 342.0–220.9 and 342–235.9 for CPL500036; 380.5–362.9 and 380.5–243.5 for donepezil. The drug concentration was calculated from the ratio of the peak area response relative to the internal standard using a standard curve.

Series [4] in a line: Pharmacokinetics after oral gavage in dogs (plasma). The class given is in vivo. The note with it: both sexes, Beagle, dog plasma, 1.5 mg/kg oral gavage, mean ± SD, n = 4. As for the experimental part: as §3, §4
A short description of the next series: pKa (Figure 1). The note with it: printed in the picture of Figure 1, no method given. The class given is physicochemical.
The mark [5] stands for this setting: male, Wistar Han, rat brain, 3 mg/kg oral gavage, mean ± SD.
[6] abbreviates: male, Wistar Han, rat plasma, 3 mg/kg oral gavage, mean ± SD.

Sequence of hERG (Q12809 whole entry): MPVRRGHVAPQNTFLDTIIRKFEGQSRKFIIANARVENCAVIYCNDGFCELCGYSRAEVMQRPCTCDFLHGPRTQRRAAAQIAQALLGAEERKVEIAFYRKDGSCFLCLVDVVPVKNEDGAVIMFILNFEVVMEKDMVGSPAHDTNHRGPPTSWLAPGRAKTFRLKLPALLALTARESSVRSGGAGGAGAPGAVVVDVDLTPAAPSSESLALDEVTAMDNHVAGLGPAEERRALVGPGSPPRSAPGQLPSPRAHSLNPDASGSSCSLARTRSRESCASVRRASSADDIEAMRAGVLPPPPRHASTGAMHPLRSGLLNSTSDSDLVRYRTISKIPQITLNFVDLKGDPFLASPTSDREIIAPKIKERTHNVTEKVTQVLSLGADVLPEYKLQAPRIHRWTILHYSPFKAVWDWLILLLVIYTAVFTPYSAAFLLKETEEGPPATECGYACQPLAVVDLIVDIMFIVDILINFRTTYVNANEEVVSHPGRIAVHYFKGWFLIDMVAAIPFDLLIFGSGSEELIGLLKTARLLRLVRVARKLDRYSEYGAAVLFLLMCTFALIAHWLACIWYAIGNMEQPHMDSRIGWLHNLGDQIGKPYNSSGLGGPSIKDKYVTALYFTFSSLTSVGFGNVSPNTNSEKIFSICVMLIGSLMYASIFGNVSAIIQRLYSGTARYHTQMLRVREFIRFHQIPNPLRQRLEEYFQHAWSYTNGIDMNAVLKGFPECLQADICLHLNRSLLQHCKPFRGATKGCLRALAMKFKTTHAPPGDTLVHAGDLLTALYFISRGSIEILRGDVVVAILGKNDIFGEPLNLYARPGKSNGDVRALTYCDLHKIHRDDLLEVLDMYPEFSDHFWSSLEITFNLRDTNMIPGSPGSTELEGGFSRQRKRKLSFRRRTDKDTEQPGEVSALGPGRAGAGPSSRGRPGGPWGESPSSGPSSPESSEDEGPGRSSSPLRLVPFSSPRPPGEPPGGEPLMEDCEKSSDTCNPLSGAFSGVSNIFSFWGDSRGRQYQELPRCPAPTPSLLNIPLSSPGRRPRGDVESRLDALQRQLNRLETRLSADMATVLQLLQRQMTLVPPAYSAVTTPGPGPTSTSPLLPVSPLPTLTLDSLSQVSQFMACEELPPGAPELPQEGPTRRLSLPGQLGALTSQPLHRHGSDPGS
T2 sequence (P23219 24-599): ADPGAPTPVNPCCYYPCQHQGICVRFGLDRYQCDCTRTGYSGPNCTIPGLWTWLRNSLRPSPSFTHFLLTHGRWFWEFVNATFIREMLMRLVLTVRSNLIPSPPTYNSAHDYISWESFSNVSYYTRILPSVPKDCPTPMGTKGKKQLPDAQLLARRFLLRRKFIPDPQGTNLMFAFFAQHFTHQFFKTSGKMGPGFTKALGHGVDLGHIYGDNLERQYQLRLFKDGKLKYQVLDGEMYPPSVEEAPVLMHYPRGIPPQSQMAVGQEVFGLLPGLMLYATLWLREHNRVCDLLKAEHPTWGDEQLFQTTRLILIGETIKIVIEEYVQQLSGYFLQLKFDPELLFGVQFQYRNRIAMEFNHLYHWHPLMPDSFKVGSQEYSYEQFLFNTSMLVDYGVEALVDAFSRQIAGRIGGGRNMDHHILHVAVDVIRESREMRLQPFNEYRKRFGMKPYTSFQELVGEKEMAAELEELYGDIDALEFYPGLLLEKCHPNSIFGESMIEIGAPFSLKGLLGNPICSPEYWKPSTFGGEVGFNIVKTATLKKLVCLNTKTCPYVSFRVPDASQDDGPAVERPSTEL
T6 sequence (Q08499 whole entry): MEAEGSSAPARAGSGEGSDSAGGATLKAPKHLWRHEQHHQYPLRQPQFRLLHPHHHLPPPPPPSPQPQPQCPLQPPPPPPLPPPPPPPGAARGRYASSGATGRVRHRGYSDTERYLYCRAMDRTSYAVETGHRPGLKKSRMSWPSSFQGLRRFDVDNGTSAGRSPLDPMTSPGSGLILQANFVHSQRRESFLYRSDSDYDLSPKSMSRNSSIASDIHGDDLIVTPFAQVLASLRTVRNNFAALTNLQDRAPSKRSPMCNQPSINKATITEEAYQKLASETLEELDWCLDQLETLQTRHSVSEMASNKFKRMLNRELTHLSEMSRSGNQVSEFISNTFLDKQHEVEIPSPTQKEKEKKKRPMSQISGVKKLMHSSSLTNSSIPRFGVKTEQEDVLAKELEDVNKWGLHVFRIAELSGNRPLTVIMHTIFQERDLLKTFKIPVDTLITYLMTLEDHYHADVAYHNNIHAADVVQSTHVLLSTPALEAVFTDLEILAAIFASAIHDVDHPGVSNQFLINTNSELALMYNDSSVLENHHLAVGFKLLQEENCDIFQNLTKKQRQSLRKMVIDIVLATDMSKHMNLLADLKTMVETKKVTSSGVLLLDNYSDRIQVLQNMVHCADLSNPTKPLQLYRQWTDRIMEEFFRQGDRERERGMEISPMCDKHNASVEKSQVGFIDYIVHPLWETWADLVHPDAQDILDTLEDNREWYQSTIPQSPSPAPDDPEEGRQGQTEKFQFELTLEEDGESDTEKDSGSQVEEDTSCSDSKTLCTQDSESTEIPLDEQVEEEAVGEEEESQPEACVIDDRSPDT
T4 sequence (P06239 whole entry): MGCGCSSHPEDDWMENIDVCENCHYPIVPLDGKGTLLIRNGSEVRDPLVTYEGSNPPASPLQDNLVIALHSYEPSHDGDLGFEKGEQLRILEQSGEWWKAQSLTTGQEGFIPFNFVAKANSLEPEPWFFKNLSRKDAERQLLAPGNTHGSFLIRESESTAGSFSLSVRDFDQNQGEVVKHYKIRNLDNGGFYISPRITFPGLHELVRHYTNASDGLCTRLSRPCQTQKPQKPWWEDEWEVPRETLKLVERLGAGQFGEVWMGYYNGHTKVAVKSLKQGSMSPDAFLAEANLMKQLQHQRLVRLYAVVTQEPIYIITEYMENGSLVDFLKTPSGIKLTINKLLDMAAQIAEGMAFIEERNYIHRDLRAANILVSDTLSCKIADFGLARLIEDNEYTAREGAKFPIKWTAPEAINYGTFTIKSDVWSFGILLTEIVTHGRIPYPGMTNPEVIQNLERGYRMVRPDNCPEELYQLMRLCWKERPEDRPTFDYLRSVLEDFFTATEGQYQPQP
T1 sequence (P22303 32-614): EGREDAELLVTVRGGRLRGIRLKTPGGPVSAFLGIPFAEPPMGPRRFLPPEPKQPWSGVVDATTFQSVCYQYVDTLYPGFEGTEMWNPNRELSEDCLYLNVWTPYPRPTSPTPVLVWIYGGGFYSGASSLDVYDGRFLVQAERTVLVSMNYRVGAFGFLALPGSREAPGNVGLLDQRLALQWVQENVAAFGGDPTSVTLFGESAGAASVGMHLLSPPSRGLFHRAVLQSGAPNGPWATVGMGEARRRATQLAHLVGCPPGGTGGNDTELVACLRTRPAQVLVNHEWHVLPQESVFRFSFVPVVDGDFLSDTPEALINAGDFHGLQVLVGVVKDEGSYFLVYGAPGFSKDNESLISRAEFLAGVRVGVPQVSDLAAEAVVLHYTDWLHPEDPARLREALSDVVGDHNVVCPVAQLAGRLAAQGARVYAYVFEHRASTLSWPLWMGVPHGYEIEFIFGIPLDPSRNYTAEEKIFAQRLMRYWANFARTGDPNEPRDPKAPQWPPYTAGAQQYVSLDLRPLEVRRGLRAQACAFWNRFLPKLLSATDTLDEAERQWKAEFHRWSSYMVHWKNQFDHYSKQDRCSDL
T5 sequence (Q14432 whole entry): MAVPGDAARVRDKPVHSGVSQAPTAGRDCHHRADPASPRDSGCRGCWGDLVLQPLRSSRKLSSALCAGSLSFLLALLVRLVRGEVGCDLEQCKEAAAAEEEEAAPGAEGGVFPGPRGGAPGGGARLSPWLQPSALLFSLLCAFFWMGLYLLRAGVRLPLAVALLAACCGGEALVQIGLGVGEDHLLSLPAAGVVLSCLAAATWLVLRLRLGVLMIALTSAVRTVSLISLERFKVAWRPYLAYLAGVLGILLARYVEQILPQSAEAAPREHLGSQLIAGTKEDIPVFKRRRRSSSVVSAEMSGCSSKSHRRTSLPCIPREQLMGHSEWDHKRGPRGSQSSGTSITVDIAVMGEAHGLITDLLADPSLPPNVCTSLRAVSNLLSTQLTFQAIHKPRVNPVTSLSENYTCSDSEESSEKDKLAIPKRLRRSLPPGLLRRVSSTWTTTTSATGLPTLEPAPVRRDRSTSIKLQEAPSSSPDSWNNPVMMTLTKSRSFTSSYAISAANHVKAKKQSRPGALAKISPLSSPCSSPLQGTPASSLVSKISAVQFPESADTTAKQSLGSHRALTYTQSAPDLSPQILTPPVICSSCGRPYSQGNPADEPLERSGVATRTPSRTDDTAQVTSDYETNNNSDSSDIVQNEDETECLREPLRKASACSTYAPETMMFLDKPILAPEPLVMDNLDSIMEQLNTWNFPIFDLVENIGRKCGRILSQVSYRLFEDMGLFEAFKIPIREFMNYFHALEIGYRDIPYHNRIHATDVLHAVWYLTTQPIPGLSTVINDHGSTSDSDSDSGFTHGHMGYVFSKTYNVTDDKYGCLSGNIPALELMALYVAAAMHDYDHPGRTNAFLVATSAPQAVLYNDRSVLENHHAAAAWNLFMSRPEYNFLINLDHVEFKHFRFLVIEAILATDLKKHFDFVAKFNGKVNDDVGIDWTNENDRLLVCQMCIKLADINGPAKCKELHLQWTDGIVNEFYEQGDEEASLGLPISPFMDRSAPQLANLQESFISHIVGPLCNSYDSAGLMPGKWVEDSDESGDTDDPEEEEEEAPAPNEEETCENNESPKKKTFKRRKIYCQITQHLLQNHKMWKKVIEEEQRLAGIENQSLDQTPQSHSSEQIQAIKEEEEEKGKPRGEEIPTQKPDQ

Usually inhibition stands for the relative decrease from the control value, in per cent. In general, fraction unbound refers to free concentration divided by total concentration. In general, Cmax refers to the highest concentration seen after dosing. By Tmax is commonly meant the time from dosing to the highest level. The term half-life denotes the time in which the quantity being followed falls by half. What is called pKa is the negative logarithm of the acid dissociation constant. As for `Cc1ncc(C)n2nc(-c3ccn4cc(-c5ccccc5)nc4n3)nc12` [CPL500036, 7-[5,8-Dimethyl-(1,2,4)triazolo (1,5-a)pyrazin-2-yl]-2-phenylimidazo (1,2-a) pyrimidine], the inhibition at 1 µM on Acetylcholinesterase is 13.7%; at Cyclooxygenase 1, -9.5%; at Cyclooxygenase 2, -0.4%; in series [1] it was -1.9%; at phosphodiesterase 3A it was -15.2%; on phosphodiesterase 4, 0.8%. For the same molecule, the “hERG IC25 relative to the IC50 for PDE10A” value on hERG was > 3,000 times. Besides, the “IC25, inhibition of hERG tail current” value against hERG (hERG-HEK-293 transfected cells, manual patch-clamp, mean ± SD, n = 3) worked out at 3.2 ± 1.6 µM. Further, the “free concentration of CPL500036 in rats” value in series [2] (based on the plasma protein binding and pharmacokinetic data) turned out to be 5%. This molecule gave a fraction unbound at 4 h, 10 µM in series [2] (rat, plasma, pH 7.4, rats, 10 μM, 37°C, 4 h, n = 2) of 0.08. Moreover, the bioavailability result in series [3] (Wistar rats, 3 mg/kg, p.o.) is “good bioavailability”. Besides, in [3] (male, Wistar Han, brain/plasma, rat, 3 mg/kg oral gavage, mean ± SD, read-out: B/P (brain to plasma ratio)), the Kp came to 0.49 ± 0.06. Also, the Cmax was found to be 94.3 ± 28.5 ng/g in series [3] (setting [5]), 238 ± 98.1 ng/mL in [3] (setting [6]) and 98.3 ± 55.4 ng/mL in [4]. The time to peak (Tmax) in series [3] (setting [5]) is 6.8 ± 3.3 h; in series [3] (setting [6]) it was 5.8 ± 1.6 h; in series [4] it was 1.3 ± 0.5 h. In addition, the AUC(0-t) stood at 844 ± 202 ng·h/mL in series [3] (setting [5]), 1620 ng·h/mL in series [3] (setting [6]) and 199 ± 106 ng·h/mL in [4] (read-out: AUC(0–24h)). The figures for the half-life in series [3] (setting [6]) and in series [4] were 6.4 ± 6.2 h and 2.1 ± 1.7 h, respectively. The pKa in “pKa (Figure 1)” stood at 2.41.

The values above are taken from paper PMC9681820, “A PDE10A inhibitor CPL500036 is a novel agent modulating striatal function devoid of most neuroleptic side-effects” (Frontiers in Pharmacology, 2022).
